Experimental findings from ChEMBL document CHEMBL1201862, “PubChem BioAssay data set” (2004) are described below.

Some test systems named below: IGROV-1; MDA-N; HOP-62; OVCAR-5; UACC-62; SR; SF-539; NCI-H226; NCI-H522; MDA-MB-231; NCI-H460; NCI/ADR-RES; SNB-75; HCT-116; HCT-15; TK-10; COLO 205; HT-29; MDA-MB-435.
Common to all, as to assay: inhibition of tumour cell growth, NCI panel, 48 h

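Dose response: 5 concentrations. Exposure: 48 h. Format: 96-well plates. Endpoint: linear interpolation; highest concentration if not reached. Here, GI50 denotes the concentration required for 50% inhibition of growth.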 The source made the active and inactive calls. Cut-off read from the data, not from the text of the source: active = GI50 up to about 1.1 µM and inactive = higher.

On to `O=[N+]([O-])c1cccc2nc3ccccc3c(NCCCCCNc3c4ccccc4nc4cccc([N+](=O)[O-])c34)c12`, for which the GI50 is 0.202 µM (active) with IGROV-1; 0.0536 µM (active) in the test with MDA-N; 0.0579 µM (active) in the test on HOP-62; 0.209 µM (active) with OVCAR-5; 0.153 µM (active) in the test with UACC-62; 0.00271 µM (active) with SR. Moreover, the GI50 with SF-539 was 0.0304 µM (active); in the test on NCI-H226, 0.245 µM (active); with NCI-H522, 0.0859 µM (active); in the test on MDA-MB-231 it was 0.0269 µM (active); with NCI-H460, 0.0296 µM (active); in the test on NCI/ADR-RES, 0.168 µM (active). Moreover, the GI50 in the test on SNB-75 is 0.197 µM (active); with HCT-116 it was 0.0117 µM (active); in the test on HCT-15, 0.0171 µM; in the test on TK-10, 0.0242 µM (active); in the test on COLO 205 it was 0.0246 µM (active); in the test on HT-29, 0.0195 µM (active).

For `CCOc1ccc(NC(=O)/C(=C/c2ccccc2)C(C)=O)cc1`, the GI50 in the test with IGROV-1 is 10.2 µM (inactive); in the test on HOP-62, 16.3 µM (inactive); in the test with OVCAR-5 it was 17.6 µM (inactive); in the test with UACC-62, 5.04 µM (inactive); in the test on SF-539 it was 10.1 µM (inactive); in the test on NCI-H226, 13.2 µM (inactive). In addition, the GI50 in the test with NCI-H522 was 2.12 µM (inactive); with NCI-H460, 17.4 µM (inactive); in the test with SNB-75 it was 4.59 µM (inactive); in the test with HCT-116, 4.94 µM (inactive); with HCT-15 it was 8.99 µM; in the test on TK-10, 17.3 µM (inactive). In addition, the GI50 in the test on COLO 205 is 17.2 µM (inactive); with HT-29 it was 10.3 µM (inactive).

In the case of `O=C1/C(=C/c2cccc(F)c2)CCCc2ccccc21`, the GI50 was 12.2 µM (inactive) in the test with IGROV-1; 14.3 µM (inactive) in the test with HOP-62; 15.1 µM (inactive) with OVCAR-5; 15.3 µM (inactive) with UACC-62; 14.7 µM (inactive) in the test with SR; 17.4 µM (inactive) with SF-539. The GI50 was 14.6 µM (inactive) in the test on NCI-H226; 12.9 µM (inactive) with NCI-H522; 18.3 µM (inactive) with MDA-MB-231; 17.4 µM (inactive) with NCI-H460; 16.5 µM (inactive) with NCI/ADR-RES; 17.3 µM (inactive) in the test with SNB-75. The GI50 with HCT-116 is 15.6 µM (inactive); in the test with HCT-15, 15.9 µM; in the test on TK-10, 15.7 µM (inactive); with MDA-MB-435, 16.2 µM (inactive); in the test with COLO 205, 20.3 µM (inactive); with HT-29 it was 13.2 µM (inactive).

For the compound `COc1ccc(O)c(/C=N\Nc2ccccc2)c1`, the GI50 with HOP-62 was 44.7 µM (inactive); in the test on OVCAR-5 it was 19.5 µM (inactive); in the test with UACC-62, 2.6 µM (inactive); in the test on SF-539 it was 12.2 µM (inactive); in the test on NCI-H226 it was 20.6 µM (inactive); with NCI-H522, 2.32 µM (inactive). Also, the GI50 with MDA-MB-231 was 7.03 µM (inactive); in the test with NCI-H460 it was 4.79 µM (inactive); in the test on NCI/ADR-RES, 18.6 µM (inactive); in the test with SNB-75, 49.9 µM (inactive); with HCT-116, 22.6 µM (inactive); in the test with HCT-15, 8.65 µM. Moreover, the GI50 in the test on MDA-MB-435 is 3.67 µM (inactive); with COLO 205, 10.6 µM (inactive); in the test with HT-29 it was 15.6 µM (inactive).

With `CC1N(O)C(c2ccccc2)C(c2ccccc2)=[N+]1[O-]` (configuration not stated), the GI50 with IGROV-1, with MDA-N, with HOP-62, in the test with OVCAR-5, with UACC-62 and in the test with SR was > 100 µM (inactive) each time. The GI50 is > 100 µM (inactive) with SF-539; > 100 µM (inactive) with NCI-H226; > 100 µM (inactive) with MDA-MB-231; > 100 µM (inactive) in the test with NCI-H460; > 100 µM (inactive) in the test with NCI/ADR-RES; 84.3 µM (inactive) in the test on SNB-75. For the same compound, the GI50 in the test on HCT-116 is > 100 µM (inactive); with HCT-15 it was > 100 µM; in the test with TK-10, > 100 µM (inactive); in the test on COLO 205 it was > 100 µM (inactive); in the test with HT-29, > 100 µM (inactive).

Take `CC1=C2CN(C(=O)OCC(C)C)CCC2C2=C(C(=O)c3ccccc3C2=O)C1C` (configuration not stated): the GI50 with IGROV-1, in the test with MDA-N, in the test on HOP-62, in the test on UACC-62, with SR and in the test with MDA-MB-231 was > 10 µM (inactive) throughout. For the same compound, the GI50 is > 10 µM (inactive) with SNB-75; > 10 µM with HCT-15; > 10 µM (inactive) in the test with TK-10; > 10 µM (inactive) in the test with MDA-MB-435; > 10 µM (inactive) in the test on COLO 205; > 10 µM (inactive) in the test with HT-29.

With `Cc1cccc(/N=C/C=C(\Cl)c2ccc3ccccc3c2)c1`, the GI50 in the test on IGROV-1 was 20.6 µM (inactive); in the test with HOP-62, 17 µM (inactive); with OVCAR-5, 27.8 µM (inactive); in the test with UACC-62, 15.1 µM (inactive); with SR it was 3.88 µM (inactive); in the test with SF-539, 17.8 µM (inactive). Moreover, the GI50 with NCI-H226 was 34.1 µM (inactive); in the test on NCI-H522, 32.6 µM (inactive); in the test with MDA-MB-231, 15.9 µM (inactive); with NCI-H460, 28.4 µM (inactive); in the test on NCI/ADR-RES it was 17.7 µM (inactive); in the test on SNB-75, > 39.3 µM (inactive). In addition, the GI50 in the test with HCT-116 is 2.98 µM (inactive); with HCT-15, 11.7 µM; with TK-10, 19.8 µM (inactive); in the test on MDA-MB-435, 18.1 µM (inactive); in the test on COLO 205, 17.9 µM (inactive); in the test with HT-29, 21.2 µM (inactive).

With `CC(C)/C(Cl)=N\OC(=O)Nc1ccc(S(N)(=O)=O)cc1`, the GI50 with IGROV-1 is 17.5 µM (inactive); in the test with MDA-N it was 18.2 µM (inactive); with HOP-62, > 42.6 µM (inactive); with OVCAR-5 it was 18.3 µM (inactive); in the test with UACC-62 it was 17.9 µM (inactive); in the test on SR, 2.08 µM (inactive). The GI50 with SF-539 is 16.8 µM (inactive); in the test on NCI-H226 it was 21 µM (inactive); with NCI-H522, 1.21 µM (inactive); in the test with MDA-MB-231 it was 12.7 µM (inactive); in the test on NCI-H460, 20.5 µM (inactive); in the test on NCI/ADR-RES, 18.7 µM (inactive). For the same compound, the GI50 is 9.33 µM (inactive) in the test with SNB-75; 13.5 µM (inactive) with HCT-116; 16.6 µM with HCT-15; 17.9 µM (inactive) with TK-10; 1.98 µM (inactive) with COLO 205; 22.4 µM (inactive) in the test with HT-29.

`O=S(=O)(c1ccc(-c2nnc(-c3ccc(F)cc3)o2)cc1)c1ccc(-c2nnc(-c3ccc(F)cc3)o2)cc1`: the GI50 with IGROV-1 was > 100 µM (inactive); in the test with MDA-N, > 100 µM (inactive); in the test with HOP-62, 27 µM (inactive); with OVCAR-5, > 100 µM (inactive); in the test with UACC-62, > 100 µM (inactive); in the test with SF-539, 50.4 µM (inactive). In addition, the GI50 is 61.5 µM (inactive) with NCI-H226; > 100 µM (inactive) with NCI-H522; > 100 µM (inactive) in the test with NCI-H460; > 100 µM (inactive) with NCI/ADR-RES; 11.1 µM (inactive) with SNB-75; > 100 µM (inactive) with HCT-116. Moreover, the GI50 in the test with HCT-15 is > 100 µM; in the test with MDA-MB-435, > 100 µM (inactive); in the test with COLO 205, > 100 µM (inactive); in the test on HT-29 it was > 100 µM (inactive).

For the compound `CC(=N\c1ccncc1)/C(C)=N/c1ccncc1`, the GI50 in the test with IGROV-1 is 17.3 µM (inactive); in the test on HOP-62, 18.5 µM (inactive); in the test with OVCAR-5 it was 17 µM (inactive); in the test with SR, 27.1 µM (inactive); with SF-539, 18.7 µM (inactive); in the test on NCI-H226, 34 µM (inactive). Further, the GI50 with NCI-H522 was 16.3 µM (inactive); in the test on MDA-MB-231, 21.8 µM (inactive); in the test on NCI-H460 it was 96.6 µM (inactive); in the test with NCI/ADR-RES it was 34.4 µM (inactive); in the test with SNB-75, > 100 µM (inactive); with HCT-116, 29.8 µM (inactive). Moreover, the GI50 is 14.4 µM with HCT-15; 35.8 µM (inactive) in the test with TK-10; 29.2 µM (inactive) in the test on MDA-MB-435; 17 µM (inactive) in the test with COLO 205; 19 µM (inactive) with HT-29.

Turning to `O=c1[nH]c2cc([N+](=O)[O-])c(Nc3c4ccccc4nc4ccccc34)c([N+](=O)[O-])c2[nH]1`, the GI50 was 0.238 µM (active) with IGROV-1; 2.67 µM (inactive) in the test with HOP-62; 2.4 µM (inactive) in the test with OVCAR-5; 1.6 µM (inactive) in the test on UACC-62; 1.74 µM (inactive) with SR; 3.28 µM (inactive) with SF-539. Besides, the GI50 is 3.13 µM (inactive) with NCI-H226; 1.46 µM (inactive) in the test with NCI-H522; 3.21 µM (inactive) with MDA-MB-231; 2.36 µM (inactive) with NCI-H460; 2.41 µM (inactive) in the test with NCI/ADR-RES; 3.68 µM (inactive) in the test on SNB-75. For the same compound, the GI50 in the test with HCT-116 is 0.82 µM (active); in the test on HCT-15 it was 2.58 µM; in the test with TK-10, 1.92 µM (inactive); in the test on MDA-MB-435 it was 2.77 µM (inactive); with COLO 205 it was 2.1 µM (inactive); in the test on HT-29, 1.98 µM (inactive).

Consider `CC1(C)CC(=O)C(=CNc2nc(-c3ccc(Br)cc3)cs2)C(=O)C1`, for which the GI50 in the test on IGROV-1 is 29.6 µM (inactive); in the test with MDA-N, 37.8 µM (inactive); with HOP-62, 31.3 µM (inactive); in the test with OVCAR-5, 42.5 µM (inactive); in the test with SF-539, 24.8 µM (inactive); in the test on NCI-H226, 45.3 µM (inactive). Further, the GI50 in the test on MDA-MB-231 was 31.8 µM (inactive); in the test with NCI-H460, 31.1 µM (inactive); with NCI/ADR-RES it was 37.8 µM (inactive); in the test with SNB-75 it was 6.35 µM (inactive); in the test with HCT-116, 26.5 µM (inactive); in the test with HCT-15, 21.2 µM. In addition, the GI50 with TK-10 is 11.5 µM (inactive); in the test on MDA-MB-435 it was 25.6 µM (inactive); in the test on COLO 205 it was 31.2 µM (inactive); in the test on HT-29, 29.9 µM (inactive).
